Laboratory results taken from ChEMBL document CHEMBL1133971, “EDTA bis-(ethyl phenylalaninate): a novel transition metal-ion chelating hydroxyl radical scavenger with a potential anti-inflammatory role” (Bioorg Med Chem Lett, 2001).

Experiments:
[1] = Antioxidant efficacy as assessed by the deoxyribose assay at a concentration of 0.104 mM
[2] = Antioxidant efficacy as assessed by the deoxyribose assay at a concentration of 1.040 mM
[3] = Antioxidant efficacy as assessed by the deoxyribose assay at a concentration of 5.2 mM
[4] = Antioxidant efficacy as assessed by the deoxyribose assay in presence of EDTA (0.104 mM) and phenylalanine (0.208 mM)

## CCOC(=O)C(Cc1ccccc1)NC(=O)CN(CCN(CC(=O)O)CC(=O)NC(Cc1ccccc1)C(=O)OCC)CC(=O)O (centres undefined)
[1]
  inhibition: 20%
[2]
  inhibition: 42%
[3]
  inhibition: 51%
[4]
  inhibition: 2%
